Measurements reported in patent US20140135310A1, “SULPHONAMIDE DERIVATIVES OF ALICYCLIC AMINES FOR THE TREATMENT OF CENTRAL NERVOUS SYSTEM DISEASES” (Adamed Sp. z o.o., priority 2011, published 2014).

Assays:
5-HT6 receptor = target: T1, 5-HT6 receptor (Homo sapiens, UniProt P50406); experiment: Radioligand binding assay, serotoninergic 5-HT6 receptors; details: binding assay result in %, Table 5a;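 note: test compound at 1 µM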
T1 construct: purchased PerkinElmer
Outline: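 Values are Ki from Cheng–Prusoff, taking IC50 from Hill nonlinear regression of competition curves and KD from a Scatchard plot. Specific binding was total minus binding with excess unlabelled ligand. Radioligand displacement was detected by scintillation counting, and data were also reported as percent of control specific binding.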

[1] = target: dopaminergic receptors D3 (Homo sapiens, UniProt P35462); experiment: Radioligand binding assay, dopaminergic D3 receptors; details: test compound 1×10^−6 M
Sequence of dopaminergic receptors D3 (P35462 whole entry): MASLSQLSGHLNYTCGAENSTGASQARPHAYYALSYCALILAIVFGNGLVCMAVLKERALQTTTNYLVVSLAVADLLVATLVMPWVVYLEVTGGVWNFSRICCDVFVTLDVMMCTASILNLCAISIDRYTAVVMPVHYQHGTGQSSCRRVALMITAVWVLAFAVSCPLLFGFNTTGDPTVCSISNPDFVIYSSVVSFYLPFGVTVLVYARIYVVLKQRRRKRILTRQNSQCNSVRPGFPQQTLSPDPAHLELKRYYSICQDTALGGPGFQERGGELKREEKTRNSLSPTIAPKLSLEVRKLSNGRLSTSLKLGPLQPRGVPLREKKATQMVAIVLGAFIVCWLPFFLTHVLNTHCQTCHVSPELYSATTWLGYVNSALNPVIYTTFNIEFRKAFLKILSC
Outline: (§1)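 Scintillation read-out. Specific = total − nonspecific (excess cold ligand). Data as % of control specific binding / % inhibition; IC50 by Hill fit; Ki = IC50/(1+L/KD), KD from Scatchard plot.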

5-HT2A receptor = target: T2, 5-HT2A receptor (Homo sapiens, UniProt P28223); experiment: Radioligand binding assay, serotoninergic 5-HT2A receptors; details: binding assay result in %, Table 5a
T2 construct: purchased PerkinElmer
T2 sequence (P28223 whole entry): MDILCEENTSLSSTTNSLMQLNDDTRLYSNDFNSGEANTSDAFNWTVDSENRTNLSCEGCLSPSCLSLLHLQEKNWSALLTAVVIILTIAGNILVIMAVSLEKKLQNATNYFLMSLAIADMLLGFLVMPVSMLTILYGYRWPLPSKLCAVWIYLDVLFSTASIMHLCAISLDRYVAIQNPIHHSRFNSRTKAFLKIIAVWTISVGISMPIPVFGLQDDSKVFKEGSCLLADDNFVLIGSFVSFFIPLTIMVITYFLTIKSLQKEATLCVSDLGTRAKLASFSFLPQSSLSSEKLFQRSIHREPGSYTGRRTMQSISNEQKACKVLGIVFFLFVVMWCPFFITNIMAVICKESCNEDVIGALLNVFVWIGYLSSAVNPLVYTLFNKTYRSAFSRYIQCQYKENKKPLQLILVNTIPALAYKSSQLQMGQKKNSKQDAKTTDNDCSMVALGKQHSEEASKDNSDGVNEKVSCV
Outline: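 Competition curves from scintillation-counted specific binding (total minus binding with excess unlabelled ligand) were Hill-fitted to give IC50, converted to Ki via Cheng-Prusoff using Scatchard-derived Kd.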

[2] = target: T3, serotonin transporter (SERT) (Homo sapiens, UniProt P31645); experiment: Radioligand binding assay, serotonin transporter (SERT); details: binding assay, test compound 1×10^−6 M
T3 construct: expressed in transfected cells; host or cells: CHO cells
T3 sequence (P31645 whole entry): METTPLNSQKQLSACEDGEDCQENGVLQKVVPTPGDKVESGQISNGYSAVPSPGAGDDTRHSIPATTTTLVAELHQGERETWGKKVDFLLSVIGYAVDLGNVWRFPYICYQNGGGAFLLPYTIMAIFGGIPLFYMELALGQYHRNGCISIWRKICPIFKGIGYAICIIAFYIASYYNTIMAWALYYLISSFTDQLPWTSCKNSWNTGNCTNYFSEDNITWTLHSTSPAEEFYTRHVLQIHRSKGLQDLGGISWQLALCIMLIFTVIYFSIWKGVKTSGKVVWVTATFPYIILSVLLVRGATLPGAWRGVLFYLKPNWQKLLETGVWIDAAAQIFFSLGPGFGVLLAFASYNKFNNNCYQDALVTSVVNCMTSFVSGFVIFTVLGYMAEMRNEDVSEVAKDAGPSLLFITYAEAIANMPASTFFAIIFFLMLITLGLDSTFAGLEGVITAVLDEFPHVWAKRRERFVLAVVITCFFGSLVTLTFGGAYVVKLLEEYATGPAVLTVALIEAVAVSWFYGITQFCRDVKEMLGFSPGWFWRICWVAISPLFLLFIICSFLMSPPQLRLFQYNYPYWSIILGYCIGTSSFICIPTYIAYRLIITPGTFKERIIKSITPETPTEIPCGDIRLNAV
Outline: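 Values are derived from competition curves fitted by the Hill equation to give IC50, then converted to Ki by Cheng-Prusoff with radioligand Kd from Scatchard analysis. Specific binding equals total minus non-specific (excess cold ligand), counted by scintillation, and is also expressed as percent inhibition of control.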

[3] = test system: α1 adrenergic receptors (rat cerebral cortex); experiment: Radioligand binding assay, adrenergic α1 receptors; details: test compound 1×10^−6 M
Outline: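 Values derive from radioligand displacement, with non-specific binding defined by excess cold ligand and detection by scintillation. Hill-fit IC50s were converted to Ki via Cheng-Prusoff using Scatchard-derived Kd; percent inhibition of control specific binding also reported.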

5-HT7 receptor = target: T4, 5-HT7 receptor (Homo sapiens, UniProt P34969); experiment: Radioligand binding assay, serotoninergic 5-HT7 receptors; details: binding assay result in %, Table 5a;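 note: test compound at 1 µM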
T4 construct: purchased PerkinElmer
T4 sequence (P34969 whole entry): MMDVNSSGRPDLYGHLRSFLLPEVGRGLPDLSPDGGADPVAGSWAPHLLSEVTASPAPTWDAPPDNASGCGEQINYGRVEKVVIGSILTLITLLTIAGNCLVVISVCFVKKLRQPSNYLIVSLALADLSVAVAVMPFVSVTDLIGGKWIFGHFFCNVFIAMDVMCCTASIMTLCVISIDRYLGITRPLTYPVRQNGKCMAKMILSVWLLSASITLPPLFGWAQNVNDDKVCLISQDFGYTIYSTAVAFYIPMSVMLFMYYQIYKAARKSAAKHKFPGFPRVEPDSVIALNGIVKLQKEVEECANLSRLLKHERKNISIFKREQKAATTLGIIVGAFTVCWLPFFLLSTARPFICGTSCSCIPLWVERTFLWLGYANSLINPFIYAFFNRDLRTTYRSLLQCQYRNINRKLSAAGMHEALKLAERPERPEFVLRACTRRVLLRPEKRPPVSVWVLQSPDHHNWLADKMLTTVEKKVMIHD
Outline: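 Ki values used the Cheng–Prusoff equation, with KD from Scatchard analysis, applied to IC50 from Hill fits of human 5-HT7 radioligand competition curves. Bound radioligand was counted by scintillation, and excess unlabelled ligand set the non-specific binding.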

[4] = target: dopaminergic receptors D2 (Homo sapiens, UniProt P14416); experiment: Radioligand binding assay, dopaminergic D2 receptors; details: binding assay, test compound 1×10^−6 M
Sequence of dopaminergic receptors D2 (P14416 whole entry): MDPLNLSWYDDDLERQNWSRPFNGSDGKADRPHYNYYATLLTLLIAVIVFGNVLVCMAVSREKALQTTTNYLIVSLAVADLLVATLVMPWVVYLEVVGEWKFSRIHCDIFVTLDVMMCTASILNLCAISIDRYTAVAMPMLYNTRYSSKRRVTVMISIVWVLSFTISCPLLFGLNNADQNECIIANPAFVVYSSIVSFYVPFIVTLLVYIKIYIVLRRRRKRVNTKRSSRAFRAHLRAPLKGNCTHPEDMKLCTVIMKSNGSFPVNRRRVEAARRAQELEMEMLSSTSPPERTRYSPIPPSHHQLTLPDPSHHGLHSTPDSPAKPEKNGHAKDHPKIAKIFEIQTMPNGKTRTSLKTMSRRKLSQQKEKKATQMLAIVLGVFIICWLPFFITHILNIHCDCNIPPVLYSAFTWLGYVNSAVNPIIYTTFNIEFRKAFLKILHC
Outline: as §1

[5] = target: T5, 5-HT1A receptor (rat hippocampus) (Rattus norvegicus, UniProt P19327); experiment: Radioligand binding assay, serotoninergic 5-HT1A receptors; details: binding assay result in %, Table 5a;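 note: test compound at 1 µM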
T5 construct: hippocampus; from tissue; host or cells: rat hippocampus
T5 sequence (P19327 1-422): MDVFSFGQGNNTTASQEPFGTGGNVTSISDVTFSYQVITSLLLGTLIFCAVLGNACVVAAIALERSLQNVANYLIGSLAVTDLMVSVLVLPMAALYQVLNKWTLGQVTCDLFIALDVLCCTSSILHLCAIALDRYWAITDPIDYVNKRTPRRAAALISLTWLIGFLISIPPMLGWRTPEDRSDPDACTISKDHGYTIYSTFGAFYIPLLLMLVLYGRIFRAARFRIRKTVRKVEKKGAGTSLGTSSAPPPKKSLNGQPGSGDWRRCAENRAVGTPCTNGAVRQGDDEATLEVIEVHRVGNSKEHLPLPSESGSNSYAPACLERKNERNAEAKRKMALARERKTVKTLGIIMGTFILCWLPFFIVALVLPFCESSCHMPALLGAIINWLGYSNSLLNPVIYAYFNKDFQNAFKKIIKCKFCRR

T1 sequence (P50406 whole entry): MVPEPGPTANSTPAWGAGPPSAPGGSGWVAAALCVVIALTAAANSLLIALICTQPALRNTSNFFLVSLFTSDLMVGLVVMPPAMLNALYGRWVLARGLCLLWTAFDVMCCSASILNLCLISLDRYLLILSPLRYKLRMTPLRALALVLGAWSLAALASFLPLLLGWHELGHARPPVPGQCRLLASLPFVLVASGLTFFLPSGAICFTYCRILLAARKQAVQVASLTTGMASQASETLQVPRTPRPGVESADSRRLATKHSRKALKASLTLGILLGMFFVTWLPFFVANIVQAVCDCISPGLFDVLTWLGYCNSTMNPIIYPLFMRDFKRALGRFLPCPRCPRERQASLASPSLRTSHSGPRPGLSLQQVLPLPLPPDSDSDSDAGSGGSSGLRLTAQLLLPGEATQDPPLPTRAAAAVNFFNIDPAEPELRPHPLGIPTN

| Structure (SMILES) | 5-HT6 [%] (5-HT6 receptor) | D3 [%] [1] [%] | 5-HT2A [%] (5-HT2A receptor) | SERT [%] [2] [%] | α1 [%] [3] [%] | 5-HT7 [%] (5-HT7 receptor) | D2 [%] [4] [%] | 5-HT1A [%] [5] [%] | inhibition at 1 µM (5-HT6 receptor) [%] | inhibition at 1 µM [1] [%] | inhibition at 1 µM (5-HT2A receptor) [%] | inhibition at 1 µM [2] [%] | inhibition at 1 µM (5-HT7 receptor) [%] | inhibition at 1 µM [4] [%] | inhibition at 1 µM [5] [%] |
| --- | --- | --- | --- | --- | --- | --- | --- | --- | --- | --- | --- | --- | --- | --- | --- |
| O=S(=O)(NCC1CCN(CCCc2noc3cc(F)ccc23)CC1)c1ccc2ccccc2c1 [Compound 38, N-[[1-[3-(6-Fluoro-1,2-benzoxazol-3-yl)propyl]-4-piperidine]methyl]-naphthalene-2-sulphonamide] | 104 | 64 | 82 | 17 | 98 | 94 | 77 | 25 |  |  |  |  |  |  |  |
| O=C1Cc2cc(S(=O)(=O)NCC3CN(CCOc4cccc5c4OCCO5)C3)ccc2N1 [Compound 189, N-[[1-[2-(2,3-Dihydro-1,4-benzodioxin-5-yloxy)ethyl]azetidin-3-yl]methyl]-2-oxo-indoline-5-sulphonamide] |  |  |  |  | 71 |  |  |  | 46 | 61 | 74 | 41 | 90 | 71 | 112 |
| O=S(=O)(NCC1CCN(CCOc2cccc3c2OCCO3)C1)c1ccc(Cl)cc1 (centres unmarked) [Compound 289, 4-Chloro-N-[[1-[2-(2,3-dihydro-1,4-benzodioxin-5-yloxy)ethyl]pyrrolidin-3-yl]methyl]benzenesulphonamide] |  |  |  |  | 46 |  |  |  | -1 | 41 | 61 | 53 | 81 | -19 | 99 |
| O=S(=O)(NCC1CCN(CCOc2cccc3ccccc23)C1)c1ccc2cc(Cl)ccc2c1 (centres unmarked) [Compound 270, 6-Chloro-N-[[1-[2-(1-naphthyloxy)ethyl]pyrrolidin-3-yl]methyl]naphthalene-2-sulphonamide] |  |  |  |  | −5 |  |  |  | 86 | 91 | 86 | 15 | 94 | 32 | 47 |
| O=S(=O)(NC1CCN(CCOc2cccc3c2OCCO3)C1)c1cccc2ccccc12 (centres unmarked) [Compound 98, N-[1-[2-(2,3-Dihydro-1,4-benzodioxan-8-yloxy)ethyl]pyrrolidin-3-yl]-naphthalene-1-sulphonamide] | 32 | 67 | 87 | 16 | 78 | 100 | 62 | 92 |  |  |  |  |  |  |  |
| O=S(=O)(NCC1CN(CCOc2cccc3c2OCCO3)C1)c1ccc2ccccc2c1 [Compound 177, N-[[1-[2-(2,3-Dihydro-1,4-benzodioxin-5-yloxy)ethyl]azetidin-3-yl]methyl]-naphthalene-2-sulphonamide] |  |  |  |  | 55 |  |  |  | 44 | 42 | 66 | 25 | 88 | 13 | 97 |
| CC1(C)Cc2cccc(OCCN3CCC(CNS(=O)(=O)c4ccc5ccccc5c4)C3)c2O1 (centres unmarked) [Compound 114, N-[[1-[2-[(2,2-Dimethyl-3H-benzofuran-7-yl)oxy]ethyl]pyrrolidin-3-yl]methyl]naphthalene-2-sulphonamide] |  |  |  |  | 27 |  |  |  | 56 | 62 | 90 | 5 | 97 | 49 | 98 |
| O=S(=O)(NCC1CN(CCOc2cccc3c2OCCO3)C1)c1cccs1 [Compound 184, N-[[1-[2-(2,3-Dihydro-1,4-benzodioxin-5-yloxy)ethyl]azetidin-3-yl]methyl]-thiophene-2-sulphonamide] |  |  |  |  | 88 |  |  |  | 20 | 39 | 76 | 1 | 89 | 24 | 71 |
| Cn1ccc2c(S(=O)(=O)NCC3CN(CCOc4cccc5ccccc45)C3)cccc21 [Compound 170, 1-Methyl-N-[[1-[2-(1-naphthyloxy)ethyl]azetidin-3-yl]methyl]indole-4-sulphonamide] |  |  |  |  | 63 |  |  |  | 93 | 98 | 72 | 93 | 104 | 79 | 90 |
| O=S(=O)(NC1CCN(CCCc2c[nH]c3ccc(Cl)cc23)C1)c1ccc(Cl)cc1 (centres unmarked) [Compound 85, 4-Chloro-N-[1-[3-(5-chloro-1H-indol-3-yl)propyl]pyrrolidin-3-yl]-benzene-sulphonamide] |  |  |  |  | 9 |  |  |  | 82 | 75 | 64 | 70 | 89 | 45 | 102 |
| Cc1c(S(=O)(=O)NCC2CCN(CCOc3cccc4ccccc34)C2)sc2ccc(Cl)cc12 (centres unmarked) [Compound 272, 5-Chloro-3-methyl-N-[[1-[2-(1-naphthyloxy)ethyl]pyrrolidin-3-yl]methyl]benzothiophene-2-sulphonamide] |  |  |  |  | −7 |  |  |  | 67 | 88 | 82 | 20 | 88 | 40 | 63 |
| O=S(=O)(NCC1CCN(CCOc2cccc3ccccc23)C1)c1cccc(O)c1 (centres unmarked) [Compound 123, 3-Hydroxy-N-[[1-[2-(1-naphthyloxy)ethyl]pyrrolidin-3-yl]methyl]-benzenesulphonamide] |  |  |  |  | 43 |  |  |  | 72 | 86 | 64 | 83 | 88 | 38 | 99 |
| Cn1ccc2cc(S(=O)(=O)NCC3CN(CCCc4noc5cc(F)ccc45)C3)ccc21 [Compound 150, N-[[1-[3-(6-Fluoro-1,2-benzoxazol-3-yl)propyl]azetidin-3-yl]methyl]-1-methyl-indole-5-sulphonamide] |  |  |  |  | 98 |  |  |  | 65 | 60 | 85 | 12 | 84 | 53 | -9 |
| O=S(=O)(NCC1CCN(CCOc2cccc3ccccc23)C1)c1cc2ccc(Cl)cc2s1 (centres unmarked) [Compound 269, 6-Chloro-N-[[1-[2-(1-naphthyloxy)ethyl]pyrrolidin-3-yl]methyl]-benzothiophene-2-sulphonamide] |  |  |  |  | −1 |  |  |  | 82 | 89 | 91 | 53 | 98 | 38 | 60 |
| O=S(=O)(NC1CCN(CCCc2noc3cc(F)ccc23)C1)c1cccc(O)c1 (centres unmarked) [Compound 18, N-[1-[3-(6-Fluoro-1,2-benzoxazol-3-yl)propyl]pyrrolidin-3-yl]-3-hydroxybenzenesulphonamide] |  |  |  |  | 98 |  |  |  | 59 | 31 | 85 | 37 | 94 | 73 | 18 |
| O=S(=O)(NC1CCN(CCCc2noc3cc(F)ccc23)C1)c1cccc(C(F)(F)F)c1 (centres unmarked) [Compound 15, N-[1-[3-(6-Fluoro-1,2-benzoxazol-3-yl)propyl]pyrrolidin-3-yl]-3-(trifluoromethyl)benzenesulphonamide] |  |  |  |  | 89 |  |  |  | 83 | 14 | 57 | -7 | 48 | 75 | 18 |
